Measured values reported in paper PMC4747042 (Molecular microbiology, 2009).

Biological target: T1, MenA (Mycobacterium tuberculosis, UniProt P9WIP3)
T1 sequence (P9WIP3 1-292): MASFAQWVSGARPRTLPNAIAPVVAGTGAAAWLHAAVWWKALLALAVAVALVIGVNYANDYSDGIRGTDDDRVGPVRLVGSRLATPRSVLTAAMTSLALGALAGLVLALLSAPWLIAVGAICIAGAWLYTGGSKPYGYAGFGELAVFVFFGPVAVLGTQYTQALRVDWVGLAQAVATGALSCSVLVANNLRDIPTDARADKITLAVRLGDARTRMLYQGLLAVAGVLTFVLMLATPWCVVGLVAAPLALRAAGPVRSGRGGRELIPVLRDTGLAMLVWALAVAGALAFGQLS
Assay type: biochemical

Question: `C=CCN(C)CCCCCCOc1ccc(C(=O)c2ccc(Br)cc2)c(F)c1` [Ro 48-8071] was tested. Which IC50 did it give?
Answer: Its IC50 is 9 µM.
